The test system of this assay is TrkA receptors. The experiment in a line: TrkA receptor phosphorylation in primary E18 basal forebrain neurons (immunoprecipitation, anti-phosphotyrosine Western blot). The conditions noted are these: 10 nM, 2 hours. It counts as cell-based, rat. The method, then:
Primary cultures of E18 basal forebrain neurons were prepared as described in the Materials and Methods section of Example 2 and treated with PACAP38 (10 nM) or NGF (10 ng/ml) for various times. Activation of TrkA receptors was assessed by immunoprecipitation and Western blotting with anti-phosphotyrosine antibody.
Immunoprecipitated and Immunoblotting. PC12 (615) cells were maintained in DMEM containing 10% FBS supplemented with 100 units/ml penicillin, 100 μg/ml streptomycin, and 2 mM glutamine plus 200 μg/ml G418. Cells were placed in serum free medium overnight before experiments. Cell lysates from PC12(615) cells, or basal forebrain cells were incubated in lysis buffer (1% Nonidet P-40) for 4 hrs to overnight at 4° C. with anti-pan-Trk polyclonal antibody followed by incubation with protein A-Sepharose beads. Equivalent amounts of protein were analyzed for each condition. The beads were washed five times with lysis buffer, and the immune complexes were boiled in SDS-sample buffer and loaded on SDS-PAGE gels for immunoblot analysis. The immunoreactive protein bands were detected by enhanced chemiluminescence (Amersham Pharmacia).
Basal Forebrain Cell Cultures. […] Cells were counted and plated on culture wells coated with 0.01 mg/ml poly-D-lysine overnight. […]
A general note: Immunoblotting shows a protein as a band on a membrane.

Where no end group is shown, it is not given here.

For the substance “PACAP27: 27 amino acid form of PACAP (HSDGIFTDSYSRYRKQMAVKKYLAAVL; ends and bridges not checked; UniProt P18509 132-158, looked up, fragment)”, the “Phosphorylation of TrkA receptors” value is listed as “gave rise to phosphorylated TrkA receptors”.

For the origin of these results see patent US7169568B2, “Method for screening molecules that exert a neurotrophic effect through activation of neurotrophin receptors” (New York University, priority 2000, dated 2007).
